Target: T1, human GPR119 (hGPR119) (Homo sapiens, UniProt Q8TDV5)
T1 construct: expressed in transfected cells; host or cells: CHO-K1
T1 sequence (Q8TDV5 1-335): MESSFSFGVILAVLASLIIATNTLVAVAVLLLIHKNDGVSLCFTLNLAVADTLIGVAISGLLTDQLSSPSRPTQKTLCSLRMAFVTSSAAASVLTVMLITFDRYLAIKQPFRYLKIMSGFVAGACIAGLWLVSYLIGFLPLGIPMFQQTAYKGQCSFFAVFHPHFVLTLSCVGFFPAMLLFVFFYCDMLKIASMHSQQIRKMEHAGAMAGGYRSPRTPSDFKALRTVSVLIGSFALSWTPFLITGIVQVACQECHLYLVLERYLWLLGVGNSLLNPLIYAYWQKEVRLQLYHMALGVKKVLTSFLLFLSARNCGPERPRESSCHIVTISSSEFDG
Experiment: cAMP accumulation assay in CHO-K1 cells stably expressing hGPR119
Assay type: cell-based
Conditions: cAMP HTRF, 60 minutes
Procedure: CHO-K1 cells stably expressing human GPR119 (hGPR119) were prepared by transfection of a GPR119-carrying plasmid using Lipofectamine 2000 (following manufacturer instructions). A stable cell line was established using the limiting dilution method with geneticine selection. Assay-ready frozen (ARF) cells were prepared and used throughout the study.
The assay was performed in a 384-well plate format using the CAMP Gs dynamic assay kit from Cisbio. ARF cells expressing hGPR119 were thawed, washed and then resuspended in CAMP stimulation buffer at a cell density of 1.1×10^6 cells/mL. Cells were plated at a density of ~10,000 cells/well (9 μL/well). Dose response curves for the tested compounds were prepared in a cAMP stimulation buffer, containing 0.1% Tween 80 at 4 fold the final concentration. The compounds were then transferred to the cell plates using BRAVO (3 μL/well) and the plates were incubated for 60 minutes at 37° C./5% CO2. Detection buffer (10 μL, prepared as described in the CAMP Gs dynamic kit) were added to each well, and the plates were incubated at ambient temperature for 1 hr.
RT-FRET was measured using a ClarioSTAR plate reader, calculating the ratio between emissions at 665 nm and 620 nm (HTRF ratio). The HTRF ratio for positive (Max) and negative (Min) controls were used to normalize HTRF data and generate values for % activity. EC50 and Max activity values were determined using a standard 4-parameter fit.

`CCCc1cnc(N2CCC(CCCOc3ccc(CC(=O)N4CC(CNCCNC(=O)NC(CO)(CO)CO)C4)c(F)c3)CC2)nc1` [Compound A43, 1-(1,3-dihydroxy-2-(hydroxymethyl)propan-2-yl)-3-(2-(((1-(2-(2-fluoro-4-(3-(1-(5-propylpyrimidin-2-yl)piperidin-4-yl)propoxy)phenyl)acetyl)azetidin-3-yl)methyl)amino)ethyl)urea] and `CCCc1cnc(N2CCC(CCCOc3cc(F)c(CC(=O)N4CC(CNCCNC(=O)NC(CO)(CO)CO)C4)c(F)c3)CC2)nc1` [Compound A47, 1-(2-(((1-(2-(2,6-difluoro-4-(3-(1-(5-propylpyrimidin-2-yl)piperidin-4-yl)propoxy)phenyl)acetyl)azetidin-3-yl)methyl)amino)ethyl)-3-(1,3-dihydroxy-2-(hydroxymethyl)propan-2-yl)urea] fall in the same range of EC50: 100 to 1000 nM for the first, 100 to 1000 nM for the second.

`CCCc1cnc(N2CCC(CCCOc3ccc(CC(=O)N4CC(CNC[C@H](O)[C@@H](O)[C@H](O)[C@H](O)CO)C4)c(F)c3)CC2)nc1` [Compound A44, 2-(2-fluoro-4-(3-(1-(5-propylpyrimidin-2-yl)piperidin-4-yl)propoxy)phenyl)-1-(3-((((2S,3R,4R,5R)-2,3,4,5,6-pentahydroxyhexyl)amino)methyl)azetidin-1-yl)ethan-1-one] and `COCc1cnc(N2CCC(CCCOc3ccc(CC(=O)N4CC(CNC[C@H](O)[C@@H](O)[C@H](O)[C@H](O)CO)C4)c(F)c3)CC2)nc1` [Compound A53, 2-[2-fluoro-4-[3-[1-[5-(methoxymethyl)pyrimidin-2-yl]-4-piperidyl]propoxy]phenyl]-1-[3-[[[(2S,3R,4R,5R)-2,3,4,5,6-pentahydroxyhexyl]amino]methyl]azetidin-1-yl]ethanone] fall in the same range of EC50: 100 to 1000 nM for the first, 100 to 1000 nM for the second.

`CCCc1cnc(N2CCC(CCCOc3cc(F)c(CC(=O)N4CC(CNCC(O)(CO)CO)C4)c(F)c3)CC2)nc1` [Compound A45, 2-(2,6-difluoro-4-(3-(1-(5-propylpyrimidin-2-yl)piperidin-4-yl)propoxy)phenyl)-1-(3-(((2,3-dihydroxy-2-(hydroxymethyl)propyl)amino)methyl)azetidin-1-yl)ethan-1-one] and `CCCc1cnc(N2CCC(CCCOc3cc(F)c(CC(=O)N4CC(CNC(CO)(CO)CO)C4)c(F)c3)CC2)nc1` [Compound A46, 2-(2,6-difluoro-4-(3-(1-(5-propylpyrimidin-2-yl)piperidin-4-yl)propoxy)phenyl)-1-(3-(((1,3-dihydroxy-2-(hydroxymethyl)propan-2-yl)amino)methyl)azetidin-1-yl)ethan-1-one] cannot be ordered by EC50: ≤ 100 nM for the first, ≤ 100 nM for the second.

`CCCc1cnc(N2CCC(CCCOc3cc(F)c(CC(=O)N4CC(CNC[C@H](O)[C@@H](O)[C@H](O)[C@H](O)CO)C4)c(F)c3)CC2)nc1` [Compound A48, 2-(2,6-difluoro-4-(3-(1-(5-propylpyrimidin-2-yl)piperidin-4-yl)propoxy)phenyl)-1-(3-((((2S,3R,4R,5R)-2,3,4,5,6-pentahydroxyhexyl)amino)methyl)azetidin-1-yl)ethan-1-one] and `COC(=O)c1cnc(N2CCC(CCCOc3ccc(CC(=O)N4CC(CNC[C@H](O)[C@@H](O)[C@H](O)[C@H](O)CO)C4)c(F)c3)CC2)nc1` [Compound A54, methyl 2-[4-[3-[3-fluoro-4-[2-oxo-2-[3-[[[(2S,3R,4R,5R)-2,3,4,5,6-pentahydroxyhexyl]amino]methyl]azetidin-1-yl]ethyl]phenoxy]propyl]-1-piperidyl]pyrimidine-5-carboxylate] cannot be ordered by EC50: ≤ 100 nM for the first, 100 to 1000 nM for the second.

With `COCc1cnc(N2CCC(CCCOc3ccc(CC(=O)N4CC(CNCC[C@@H](O)C[C@@H](O)CC(=O)O)C4)c(F)c3)CC2)nc1` [Compound A52, (3R,5R)-7-[[1-[2-[2-fluoro-4-[3-[1-[5-(methoxymethyl)pyrimidin-2-yl]-4-piperidyl]propoxy]phenyl]acetyl]azetidin-3-yl]methylamino]-3,5-dihydroxy-heptanoic acid] the EC50 was 100 to 1000 nM.

Source: patent US20260191858A1, “COMBINATION THERAPIES” (Kallyope, Inc., priority 2022, published 2026)
